ChEMBL document CHEMBL5113517, “Structure-Based Design, Optimization, and Evaluation of Potent Stabilized Peptide Inhibitors Disrupting MTDH and SND1 Interaction” (J Med Chem, 2022)
Activity calls are given as the source filed them. No cut-off for these calls is given here. Bridge positions count the residues as written; N and C are the ends. Square brackets hold non-standard residues; d marks the D form. Peptide text beside a SMILES is read from it. I, II: the chains in the order shown. ξ: configuration not given here. Dap = NC[C@H](N)C(=O)O; ξD = NC(CC(=O)O)C(=O)O

Columns and labels:
MDA-MB-231 [1] = assay: Antiproliferative activity against human MDA-MB-231 cells assessed as growth inhibition at 100 uM in presence of paclitaxel; type: functional, cell-based
MDA-MB-231 [2] = assay: Cytotoxicity against human MDA-MB-231 cells assessed as reduction in cell viability at 100 uM incubated for 72 hrs by CCK8 assay; type: functional
[3] = Stability of the compound in mouse serum measured after 3 to 7 days by HPLC analysis; type: ADME, cell-free; conditions: time 3-7 day
MDA-MB-468 [4] = assay: Cytotoxicity against human MDA-MB-468 cells assessed as reduction in cell viability at 6.25 to 200 uM incubated for 72 hrs by CCK8 assay; type: functional, cell-based; conditions: dose 6.25-200 µM
MDA-MB-231 [5] = assay: Cell cycle arrest in human MDA-MB-231 cells assessed as accumulation at S phase at 50 uM measured after 48 hrs by flow cytometric analysis flow cytometry analysis (reference value: 25.88%); type: functional
[6] = Drug uptake in human MDA-MB-231 cells assessed as increase in cell penetration at 10 uM incubated for 12 hrs by flow cytometry method; type: ADME, cell-based; conditions: mda-mb-231, 12 h
MDA-MB-231 [7] = assay: Cell cycle arrest in human MDA-MB-231 cells assessed as accumulation at G2/M phase at 100 uM measured after 48 hrs by flow cytometric analysis flow cytometry analysis (reference value: 16.38 %); type: functional
MDA-MB-231 [8] = assay: Cytotoxicity against human MDA-MB-231 cells assessed as reduction in cell viability at 6.25 to 200 uM incubated for 72 hrs by CCK8 assay; type: functional, cell-based; conditions: dose 6.25-200 µM
MDA-MB-231 [9] = assay: Cytotoxicity against human MDA-MB-231 cells assessed as reduction in cell viability incubated for 72 hrs by CCK8 assay; type: functional, cell-based
[10] = Binding affinity to MTDH /His-SND1 (unknown origin) expressed in Escherichia coli BL21(DE3) assessed as dissociation constant by fluorescence polarization assay; design: species or system Homo sapiens
MDA-MB-231 [11] = assay: Cell cycle arrest in human MDA-MB-231 cells assessed as accumulation at S phase at 100 uM measured after 48 hrs by flow cytometric analysis flow cytometry analysis (reference value: 25.81%); type: functional
[12] = Drug uptake in human MDA-MB-231 cells assessed as increase in colocalization at 10 uM by confocal microscopy; type: ADME, cell-based; conditions: mda-mb-231, 10 µM
MDA-MB-231 [13] = assay: Inhibition of GST-tagged MTDH (364 ro 582 residues)/His-tagged SND1 (16 to 339 residues) interaction in human MDA-MB-231 cells measured after 12 hrs by co-immunoprecipitation assay; type: cell-based
MDA-MB-231 [14] = assay: Cell cycle arrest in human MDA-MB-231 cells assessed as accumulation at G0/G1 phase at 100 uM measured after 48 hrs by propidium iodide based flow cytometry analysis (reference value: 57.81 %); type: functional
MCF-10A = assay: Cytotoxicity against human MCF-10A cells assessed as reduction in cell viability at 6.25 to 200 uM incubated for 72 hrs by CCK8 assay; type: toxicity, cell-based; conditions: dose 6.25-200 µM
Homo sapiens = species: Homo sapiens; assay: Inhibition of GST-tagged MTDH (364 ro 582 residues)/His-tagged SND1 (16 to 339 residues) (unknown origin) interaction measured after 12 hrs by pull down assay
MDA-MB-231 [15] = assay: Cell cycle arrest in human MDA-MB-231 cells assessed as accumulation at G0/G1 phase at 50 uM measured after 48 hrs by flow cytometric analysis flow cytometry analysis (reference value: 58.28 %); type: functional
MDA-MB-231 [16] = assay: Cell cycle arrest in human MDA-MB-231 cells assessed as accumulation at G2/M phase at 50 uM measured after 48 hrs by flow cytometric analysis flow cytometry analysis (reference value: 15.84 %); type: functional
[17] = Toxicity in mouse RBC assessed as induction of hemolysis at 200 uM measured after 1 hr by microplate reader assay; type: cell-based; conditions: erythrocyte
MDA-MB-468 [18] = assay: Cytotoxicity against human MDA-MB-468 cells assessed as reduction in cell viability incubated for 72 hrs by CCK8 assay; type: functional, cell-based
MDA-MB-231 [19] = assay: Inhibition of cell migration in human MDA-MB-231 cells measured after 24 to 48 hrs by wound healing assay; type: functional, cell-based; conditions: time 24-48 hrs

## CC(C)[C@H](NC(=O)[C@H](Cc1c[nH]c2ccccc12)NC(=O)[C@H](CC(N)=O)NC(=O)CNC(=O)[C@H](Cc1c[nH]c2ccccc12)NC(=O)[C@H](CCC(=O)O)NC(=O)[C@H](CCC(=O)O)NC(=O)[C@@H]1CNC(=O)[C@@H](NC(=O)[C@H](Cc2c[nH]c3ccccc23)NC(=O)[C@@H](N)CC(=O)O)CC(=O)N[C@@H](C)C(=O)N2CCC[C@H]2C(=O)N1)C(=O)N[C@@H](CC(=O)O)C(=O)N[C@@H](CCC(=O)O)C(N)=O
MDA-MB-231 [1]
  Activity: Active
MDA-MB-231 [2]
  Activity: 60%
[3]
  Stability: Stable
MDA-MB-468 [4]
  Activity: Active
MDA-MB-231 [5]
  Activity: 18.5%
[6]
  Drug uptake: Active
MDA-MB-231 [7]
  Activity: 10.12%
MDA-MB-231 [8]
  Activity: Active
MDA-MB-231 [9]
  Activity: Active
[10]
  Kd: 74.1 nM
MDA-MB-231 [11]
  Activity: 8.32%
[12]
  Drug uptake: Active
MDA-MB-231 [13]
  inhibition: Active
MDA-MB-231 [14]
  Activity: 81.56%
MCF-10A
  Activity: Non-Toxic
Homo sapiens
  inhibition: Active
MDA-MB-231 [15]
  Activity: 69.94%
MDA-MB-231 [16]
  Activity: 11.55%
[17]
  Activity: Non-Toxic
MDA-MB-468 [18]
  Activity: Active
MDA-MB-231 [19]
  inhibition: Active

## CC(C)[C@H](NC(=O)[C@H](Cc1c[nH]c2ccccc12)NC(=O)[C@H](CC(N)=O)NC(=O)CNC(=O)[C@H](Cc1c[nH]c2ccccc12)NC(=O)[C@H](CCC(=O)O)NC(=O)[C@H](CCC(=O)O)NC(=O)[C@H](C)NC(=O)[C@@H]1CCCN1C(=O)[C@@H]1CNC(=O)[C@@H](NC(=O)[C@@H](N)CC(=O)O)CC(=O)N[C@@H](Cc2c[nH]c3ccccc23)C(=O)N[C@@H](CC(N)=O)C(=O)N1)C(=O)N[C@@H](CC(=O)O)C(=O)N[C@@H](CCC(=O)O)C(N)=O
[6]
  Drug uptake: Active
[10]
  Kd: 121 nM

## CC(C)[C@H](NC(=O)[C@H](Cc1c[nH]c2ccccc12)NC(=O)[C@H](CC(N)=O)NC(=O)CNC(=O)[C@H](Cc1c[nH]c2ccccc12)NC(=O)[C@H](CCC(=O)O)NC(=O)[C@H](CCC(=O)O)NC(=O)[C@H](C)NC(=O)[C@@H]1CCCN1C(=O)[C@H](C)NC(=O)[C@H](CC(N)=O)NC(=O)[C@H](Cc1c[nH]c2ccccc12)NC(=O)[C@@H](N)CC(=O)O)C(=O)N[C@@H](CC(=O)O)C(=O)N[C@@H](CCC(=O)O)C(=O)O (H-DWNAPAEEWGNWVDE-OH)
MDA-MB-231 [5]
  Activity: 22.86%
[6]
  Drug uptake: Active
MDA-MB-231 [7]
  Activity: 15.55%
[10]
  Kd: 56.5 nM
MDA-MB-231 [11]
  Activity: 22.66%
[12]
  Drug uptake: Active
MDA-MB-231 [14]
  Activity: 61.79%
MDA-MB-231 [15]
  Activity: 60.42%
MDA-MB-231 [16]
  Activity: 16.7%

## CC(C)[C@H](NC(=O)[C@H](Cc1c[nH]c2ccccc12)NC(=O)[C@H](CC(N)=O)NC(=O)CNC(=O)[C@H](Cc1c[nH]c2ccccc12)NC(=O)[C@H](CCC(=O)O)NC(=O)[C@@H]1CNC(=O)CC(NC(=O)[C@H](CC(N)=O)NC(=O)[C@H](Cc2c[nH]c3ccccc23)NC(=O)[C@@H](N)CC(=O)O)C(=O)N2CCC[C@H]2C(=O)N[C@@H](C)C(=O)N1)C(=O)N[C@@H](CC(=O)O)C(=O)N[C@@H](CCC(=O)O)C(N)=O (stereo partly specified) (H-DWN[ξD]PA[Dap]EWGNWVDE-NH2; lactam 4-7)
[6]
  Drug uptake: Active
[10]
  Kd: 171 nM

## CC(C)[C@H](NC(=O)[C@H](Cc1c[nH]c2ccccc12)NC(=O)[C@H](CC(N)=O)NC(=O)CNC(=O)[C@H](Cc1c[nH]c2ccccc12)NC(=O)[C@@H]1CNC(=O)[C@@H](NC(=O)[C@H](C)NC(=O)[C@H](CC(N)=O)NC(=O)[C@H](Cc2c[nH]c3ccccc23)NC(=O)[C@@H](N)CC(=O)O)CC(=O)N[C@@H](C)C(=O)N[C@@H](CCC(=O)O)C(=O)N1)C(=O)N[C@@H](CC(=O)O)C(=O)N[C@@H](CCC(=O)O)C(N)=O (I: AE[Dap]WGNWVDE-NH2 / II: H-DWNAD; amide I:3-II:C, I:N-II:5)
[6]
  Drug uptake: Active
[10]
  Kd: 171 nM
